In PubChem BioAssay AID2060343 (Molecular Pharmacology Branch, DTP, NCI, 2025):

Tested on: 138582-337-R-J1-PDC spheroids with HUVEC/MSC, viability
Assay: Anticancer human tumor 138582-337-R-J1-PDC patient-derived Merkel cell tumor cell line growth inhibition [IpAb]
Conditions: for IC50: curve of first compound; for viability, T/C: stronger effect = lower value
Summary of the method: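 Spheroids of 60% malignant cells, 25% HUVEC and 15% MSC were exposed to targeted agents combined with ipatasertib or abemaciclib. Doses started at or near clinical Cmax (10 microM when unknown) and fell in half-log steps.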

[1] = second compound 0.01 µM, first compound 0.00949 µM
[2] = second compound 0.01 µM, first compound 0.03 µM
[3] = second compound 0.01 µM, first compound 0.0949 µM
[4] = second compound 0.01 µM, first compound 0.3 µM
[5] = second compound 0.0316 µM, first compound 0.00949 µM
[6] = second compound 0.0316 µM, first compound 0.03 µM
[7] = second compound 0.0316 µM, first compound 0.0949 µM
[8] = second compound 0.0316 µM, first compound 0.3 µM
[9] = second compound 0.1 µM, first compound 0.00949 µM
[10] = second compound 0.1 µM, first compound 0.03 µM
[11] = second compound 0.1 µM, first compound 0.0949 µM
[12] = second compound 0.1 µM, first compound 0.3 µM
[13] = second compound 0.316 µM, first compound 0.00949 µM
[14] = second compound 0.316 µM, first compound 0.03 µM
[15] = second compound 0.316 µM, first compound 0.0949 µM
[16] = second compound 0.316 µM, first compound 0.3 µM
[17] = second compound 1 µM, first compound 0.00949 µM
[18] = second compound 1 µM, first compound 0.03 µM
[19] = second compound 1 µM, first compound 0.0949 µM
[20] = second compound 1 µM, first compound 0.3 µM
[21] = second compound 0.01 µM, first compound 0.0316 µM
[22] = second compound 0.01 µM, first compound 0.1 µM
[23] = second compound 0.01 µM, first compound 0.316 µM
[24] = second compound 0.01 µM, first compound 1 µM
[25] = second compound 0.0316 µM, first compound 0.0316 µM
[26] = second compound 0.0316 µM, first compound 0.1 µM
[27] = second compound 0.0316 µM, first compound 0.316 µM
[28] = second compound 0.0316 µM, first compound 1 µM
[29] = second compound 0.1 µM, first compound 0.0316 µM
[30] = second compound 0.1 µM, first compound 0.1 µM
[31] = second compound 0.1 µM, first compound 0.316 µM
[32] = second compound 0.1 µM, first compound 1 µM
[33] = second compound 0.316 µM, first compound 0.0316 µM
[34] = second compound 0.316 µM, first compound 0.1 µM
[35] = second compound 0.316 µM, first compound 0.316 µM
[36] = second compound 0.316 µM, first compound 1 µM
[37] = second compound 1 µM, first compound 0.0316 µM
[38] = second compound 1 µM, first compound 0.1 µM
[39] = second compound 1 µM, first compound 0.316 µM
[40] = second compound 1 µM, first compound 1 µM
[41] = second compound 0.01 µM, first compound 3.16 µM
[42] = second compound 0.01 µM, first compound 10 µM
[43] = second compound 0.0316 µM, first compound 3.16 µM
[44] = second compound 0.0316 µM, first compound 10 µM
[45] = second compound 0.1 µM, first compound 3.16 µM
[46] = second compound 0.1 µM, first compound 10 µM
[47] = second compound 0.316 µM, first compound 3.16 µM
[48] = second compound 0.316 µM, first compound 10 µM
[49] = second compound 1 µM, first compound 3.16 µM
[50] = second compound 1 µM, first compound 10 µM
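Further: spheroids exposed to compounds for seven days.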
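Wherever viability, T/C is given: 100% = DMSO vehicle control viability.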

## CC(=O)c1c(C)c2cnc(Nc3ccc(N4CCNCC4)cn3)nc2n(C2CCCC2)c1=O + CCN1CCN(Cc2ccc(Nc3ncc(F)c(-c4cc(F)c5nc(C)n(C(C)C)c5c4)n3)nc2)CC1
Second compound 0.01 µM
  IC50: > 300 nM
Second compound 0.0316 µM
  IC50: > 300 nM
Second compound 0.1 µM
  IC50: > 300 nM
Second compound 0.316 µM
  IC50: > 300 nM
Second compound 1 µM
  IC50: > 300 nM
Second compound 0.01 µM, first compound 0.000949 µM
  viability, T/C: 97.9%
Second compound 0.01 µM, first compound 0.003 µM
  viability, T/C: 91.1%
[1]
  viability, T/C: 88.1%
[2]
  viability, T/C: 92.5%
[3]
  viability, T/C: 93.4%
[4]
  viability, T/C: 86.6%
Second compound 0.0316 µM, first compound 0.000949 µM
  viability, T/C: 91.2%
Second compound 0.0316 µM, first compound 0.003 µM
  viability, T/C: 89.5%
[5]
  viability, T/C: 79.7%
[6]
  viability, T/C: 89%
[7]
  viability, T/C: 88.3%
[8]
  viability, T/C: 81.8%
Second compound 0.1 µM, first compound 0.000949 µM
  viability, T/C: 84.6%
Second compound 0.1 µM, first compound 0.003 µM
  viability, T/C: 91.5%
[9]
  viability, T/C: 85.1%
[10]
  viability, T/C: 88.7%
[11]
  viability, T/C: 82%
[12]
  viability, T/C: 75%
Second compound 0.316 µM, first compound 0.000949 µM
  viability, T/C: 93.6%
Second compound 0.316 µM, first compound 0.003 µM
  viability, T/C: 86.6%
[13]
  viability, T/C: 85.3%
[14]
  viability, T/C: 79.7%
[15]
  viability, T/C: 87.6%
[16]
  viability, T/C: 79.7%
Second compound 1 µM, first compound 0.000949 µM
  viability, T/C: 99.4%
Second compound 1 µM, first compound 0.003 µM
  viability, T/C: 102%
[17]
  viability, T/C: 93.3%
[18]
  viability, T/C: 88.6%
[19]
  viability, T/C: 92.6%
[20]
  viability, T/C: 84.7%

## CC(C)(C)c1cnc(CSc2cnc(NC(=O)C3CCNCC3)s2)o1 + CCN1CCN(Cc2ccc(Nc3ncc(F)c(-c4cc(F)c5nc(C)n(C(C)C)c5c4)n3)nc2)CC1
Second compound 0.01 µM
  IC50: 145 nM
Second compound 0.0316 µM
  IC50: 124 nM
Second compound 0.1 µM
  IC50: 120 nM
Second compound 0.316 µM
  IC50: 99.5 nM
Second compound 1 µM
  IC50: 67.7 nM
[1]
  viability, T/C: 107%
[2]
  viability, T/C: 109%
[3]
  viability, T/C: 79%
[4]
  viability, T/C: 0.85%
Second compound 0.01 µM, first compound 0.949 µM
  viability, T/C: 0.5%
Second compound 0.01 µM, first compound 3 µM
  viability, T/C: 0.66%
[5]
  viability, T/C: 96.7%
[6]
  viability, T/C: 103%
[7]
  viability, T/C: 64.9%
[8]
  viability, T/C: 0.68%
Second compound 0.0316 µM, first compound 0.949 µM
  viability, T/C: 0.35%
Second compound 0.0316 µM, first compound 3 µM
  viability, T/C: 0.65%
[9]
  viability, T/C: 91.6%
[10]
  viability, T/C: 91.3%
[11]
  viability, T/C: 62.4%
[12]
  viability, T/C: 0.43%
Second compound 0.1 µM, first compound 0.949 µM
  viability, T/C: 0.5%
Second compound 0.1 µM, first compound 3 µM
  viability, T/C: 0.5%
[13]
  viability, T/C: 92.9%
[14]
  viability, T/C: 96.5%
[15]
  viability, T/C: 52.1%
[16]
  viability, T/C: 0.57%
Second compound 0.316 µM, first compound 0.949 µM
  viability, T/C: 0.45%
Second compound 0.316 µM, first compound 3 µM
  viability, T/C: 0.7%
[17]
  viability, T/C: 88.7%
[18]
  viability, T/C: 94.7%
[19]
  viability, T/C: 32.7%
[20]
  viability, T/C: 0.63%
Second compound 1 µM, first compound 0.949 µM
  viability, T/C: 0.5%
Second compound 1 µM, first compound 3 µM
  viability, T/C: 0.78%

## COc1c(OCCCN2CCOCC2)ccc2c3n(c(=NC(=O)c4cnc(N)nc4)nc12)CCN3 + CCN1CCN(Cc2ccc(Nc3ncc(F)c(-c4cc(F)c5nc(C)n(C(C)C)c5c4)n3)nc2)CC1
Second compound 0.01 µM
  IC50: 48.1 nM
Second compound 0.0316 µM
  IC50: 42.1 nM
Second compound 0.1 µM
  IC50: 43.2 nM
Second compound 0.316 µM
  IC50: 42.7 nM
Second compound 1 µM
  IC50: 31.3 nM
Second compound 0.01 µM, first compound 0.00316 µM
  viability, T/C: 91.8%
Second compound 0.01 µM, first compound 0.01 µM
  viability, T/C: 80.9%
[21]
  viability, T/C: 58.5%
[22]
  viability, T/C: 33.7%
[23]
  viability, T/C: 15.2%
[24]
  viability, T/C: 1.9%
Second compound 0.0316 µM, first compound 0.00316 µM
  viability, T/C: 93.2%
Second compound 0.0316 µM, first compound 0.01 µM
  viability, T/C: 73.2%
[25]
  viability, T/C: 56.7%
[26]
  viability, T/C: 35.1%
[27]
  viability, T/C: 14.7%
[28]
  viability, T/C: 1.66%
Second compound 0.1 µM, first compound 0.00316 µM
  viability, T/C: 84.1%
Second compound 0.1 µM, first compound 0.01 µM
  viability, T/C: 76.5%
[29]
  viability, T/C: 55.4%
[30]
  viability, T/C: 32.8%
[31]
  viability, T/C: 11.6%
[32]
  viability, T/C: 1.67%
Second compound 0.316 µM, first compound 0.00316 µM
  viability, T/C: 85.9%
Second compound 0.316 µM, first compound 0.01 µM
  viability, T/C: 74.2%
[33]
  viability, T/C: 57.5%
[34]
  viability, T/C: 31.4%
[35]
  viability, T/C: 11.8%
[36]
  viability, T/C: 2.07%
Second compound 1 µM, first compound 0.00316 µM
  viability, T/C: 98.3%
Second compound 1 µM, first compound 0.01 µM
  viability, T/C: 72%
[37]
  viability, T/C: 56.6%
[38]
  viability, T/C: 18.8%
[39]
  viability, T/C: 5.6%
[40]
  viability, T/C: 2.69%

## Cc1nc(NC(=O)N2CCCC2C(N)=O)sc1-c1ccnc(C(C)(C)C(F)(F)F)c1 (stereo not given) + CCN1CCN(Cc2ccc(Nc3ncc(F)c(-c4cc(F)c5nc(C)n(C(C)C)c5c4)n3)nc2)CC1
Second compound 0.01 µM
  IC50: 1850 nM
Second compound 0.0316 µM
  IC50: 1410 nM
Second compound 0.1 µM
  IC50: 1140 nM
Second compound 0.316 µM
  IC50: 1010 nM
Second compound 1 µM
  IC50: 462 nM
[21]
  viability, T/C: 95.2%
[22]
  viability, T/C: 81.4%
[23]
  viability, T/C: 73.2%
[24]
  viability, T/C: 59%
[41]
  viability, T/C: 45.4%
[42]
  viability, T/C: 13.7%
[25]
  viability, T/C: 94.1%
[26]
  viability, T/C: 82.3%
[27]
  viability, T/C: 69%
[28]
  viability, T/C: 55.4%
[43]
  viability, T/C: 40.1%
[44]
  viability, T/C: 18.2%
[29]
  viability, T/C: 88.1%
[30]
  viability, T/C: 78.7%
[31]
  viability, T/C: 59.2%
[32]
  viability, T/C: 56.4%
[45]
  viability, T/C: 35.2%
[46]
  viability, T/C: 9.25%
[33]
  viability, T/C: 90.8%
[34]
  viability, T/C: 74.8%
[35]
  viability, T/C: 69.7%
[36]
  viability, T/C: 48.2%
[47]
  viability, T/C: 32.1%
[48]
  viability, T/C: 6.45%
[37]
  viability, T/C: 89.3%
[38]
  viability, T/C: 84.2%
[39]
  viability, T/C: 54.4%
[40]
  viability, T/C: 35.1%
[49]
  viability, T/C: 10.7%
[50]
  viability, T/C: 1.63%

## Cn1nccc1Nc1nccc(-c2ccn(C(CO)c3ccc(Cl)c(F)c3)c(=O)c2)n1 (stereo not given) + CCN1CCN(Cc2ccc(Nc3ncc(F)c(-c4cc(F)c5nc(C)n(C(C)C)c5c4)n3)nc2)CC1
Second compound 0.01 µM
  IC50: > 10000 nM
Second compound 0.0316 µM
  IC50: > 10000 nM
Second compound 0.1 µM
  IC50: > 10000 nM
Second compound 0.316 µM
  IC50: > 10000 nM
Second compound 1 µM
  IC50: > 10000 nM
[21]
  viability, T/C: 99.8%
[22]
  viability, T/C: 92.3%
[23]
  viability, T/C: 90.1%
[24]
  viability, T/C: 94.8%
[41]
  viability, T/C: 107%
[42]
  viability, T/C: 154%
[25]
  viability, T/C: 88.3%
[26]
  viability, T/C: 90.5%
[27]
  viability, T/C: 82.7%
[28]
  viability, T/C: 91.9%
[43]
  viability, T/C: 107%
[44]
  viability, T/C: 149%
[29]
  viability, T/C: 79.9%
[30]
  viability, T/C: 89.8%
[31]
  viability, T/C: 79.6%
[32]
  viability, T/C: 90.2%
[45]
  viability, T/C: 108%
[46]
  viability, T/C: 134%
[33]
  viability, T/C: 89.8%
[34]
  viability, T/C: 82.7%
[35]
  viability, T/C: 88.6%
[36]
  viability, T/C: 96%
[47]
  viability, T/C: 124%
[48]
  viability, T/C: 173%
[37]
  viability, T/C: 106%
[38]
  viability, T/C: 96%
[39]
  viability, T/C: 83.2%
[40]
  viability, T/C: 97.6%
[49]
  viability, T/C: 142%
[50]
  viability, T/C: 178%
